From PubChem BioAssay (NCI)
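GI50: concentration for 50% inhibition of growth. TGI: concentration producing complete growth inhibition.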

Experiments:
Assay in all cases: NCI-60 cell line screen, 384-well format
NCI-H23 lung = system: NCI-H23 lung
NCI-H322M lung = system: NCI-H322M lung
NCI-H460 NSCLC = system: NCI-H460 NSCLC
NCI-H522 lung = system: NCI-H522 lung
NCI/ADR-RES ovarian = system: NCI/ADR-RES ovarian
OVCAR-3 ovarian = system: OVCAR-3 ovarian
OVCAR-4 ovarian = system: OVCAR-4 ovarian
OVCAR-5 ovarian = system: OVCAR-5 ovarian
OVCAR-8 ovarian = system: OVCAR-8 ovarian
PC-3 prostate = system: PC-3 prostate
RPMI-8226 leukemia = system: RPMI-8226 leukemia
RXF 393 renal = system: RXF 393 renal
SF-268 CNS = system: SF-268 CNS
SF-539 CNS = system: SF-539 CNS
SK-MEL-2 melanoma = system: SK-MEL-2 melanoma
SK-MEL-28 melanoma = system: SK-MEL-28 melanoma
SK-MEL-5 melanoma = system: SK-MEL-5 melanoma
SN12C renal = system: SN12C renal
SNB-19 CNS = system: SNB-19 CNS
SR leukemia = system: SR leukemia
SW-620 colon = system: SW-620 colon
T-47D breast = system: T-47D breast
TK-10 renal = system: TK-10 renal
U251 glioblastoma = system: U251 glioblastoma
UACC-257 melanoma = system: UACC-257 melanoma
UACC-62 melanoma = system: UACC-62 melanoma
UO-31 renal = system: UO-31 renal

SMILES: CN[C@@H](C)C(=O)N[C@H](C(=O)N1CCC[C@H]1C(=O)N[C@H]1c2ccccc2C[C@H]1OCC#CC#CCO[C@@H]1Cc2ccccc2[C@@H]1NC(=O)[C@@H]1CCCN1C(=O)[C@@H](NC(=O)[C@H](C)NC)C1CCCCC1)C1CCCCC1
- GI50 (NCI-H23 lung): < 0.01 µM
- TGI (NCI-H23 lung): 0.0576 µM
- GI50 (NCI-H322M lung): 2.25 µM
- TGI (NCI-H322M lung): 5.31 µM
- GI50 (NCI-H460 NSCLC): 1.77 µM
- TGI (NCI-H460 NSCLC): 3.19 µM
- GI50 (NCI-H522 lung): < 0.01 µM
- TGI (NCI-H522 lung): 1.02 µM
- GI50 (NCI/ADR-RES ovarian): 4.65 µM
- TGI (NCI/ADR-RES ovarian): 35.5 µM
- GI50 (OVCAR-3 ovarian): 1.32 µM
- TGI (OVCAR-3 ovarian): 2.64 µM
- GI50 (OVCAR-4 ovarian): < 0.01 µM
- TGI (OVCAR-4 ovarian): < 0.01 µM
- GI50 (OVCAR-5 ovarian): 12.3 µM
- TGI (OVCAR-5 ovarian): 24.8 µM
- GI50 (OVCAR-8 ovarian): 0.135 µM
- TGI (OVCAR-8 ovarian): 2.22 µM
- GI50 (PC-3 prostate): 1.81 µM
- TGI (PC-3 prostate): 3.85 µM
- GI50 (RPMI-8226 leukemia): < 0.01 µM
- TGI (RPMI-8226 leukemia): 1.1 µM
- GI50 (RXF 393 renal): < 0.01 µM
- TGI (RXF 393 renal): < 0.01 µM
- GI50 (SF-268 CNS): 1.67 µM
- TGI (SF-268 CNS): 3.04 µM
- GI50 (SF-539 CNS): 1.64 µM
- TGI (SF-539 CNS): 3.01 µM
- GI50 (SK-MEL-2 melanoma): < 0.01 µM
- TGI (SK-MEL-2 melanoma): < 0.01 µM
- GI50 (SK-MEL-28 melanoma): 1.37 µM
- TGI (SK-MEL-28 melanoma): 2.67 µM
- GI50 (SK-MEL-5 melanoma): < 0.01 µM
- TGI (SK-MEL-5 melanoma): 0.0446 µM
- GI50 (SN12C renal): 2.14 µM
- TGI (SN12C renal): 3.61 µM
- GI50 (SNB-19 CNS): 1.56 µM
- TGI (SNB-19 CNS): 2.97 µM
- GI50 (SR leukemia): 0.0188 µM
- TGI (SR leukemia): 1.05 µM
- GI50 (SW-620 colon): 2.16 µM
- TGI (SW-620 colon): 4.3 µM
- GI50 (T-47D breast): 1.73 µM
- TGI (T-47D breast): 3.17 µM
- GI50 (TK-10 renal): 14 µM
- TGI (TK-10 renal): 27 µM
- GI50 (U251 glioblastoma): 1.49 µM
- TGI (U251 glioblastoma): 2.82 µM
- GI50 (UACC-257 melanoma): 1.52 µM
- TGI (UACC-257 melanoma): 2.85 µM
- GI50 (UACC-62 melanoma): 1.65 µM
- TGI (UACC-62 melanoma): 3.01 µM
- GI50 (UO-31 renal): 19.5 µM
- TGI (UO-31 renal): 33.7 µM
